Converted amounts (≈) assume the structure as drawn. Each block holds one molecule with its values, some of them ahead of it.
Tests used:
[1] = biological target: Serine/threonine-protein kinase mTOR (Homo sapiens, UniProt P42345)
[2] = biological target: T1, Histone deacetylase 8 (Homo sapiens, UniProt Q9BY41); assay: Inhibition of HDAC8 (unknown origin) using Fluoro-Substrate Peptide as substrate by fluorescence assay
T1 sequence (Q9BY41 whole entry): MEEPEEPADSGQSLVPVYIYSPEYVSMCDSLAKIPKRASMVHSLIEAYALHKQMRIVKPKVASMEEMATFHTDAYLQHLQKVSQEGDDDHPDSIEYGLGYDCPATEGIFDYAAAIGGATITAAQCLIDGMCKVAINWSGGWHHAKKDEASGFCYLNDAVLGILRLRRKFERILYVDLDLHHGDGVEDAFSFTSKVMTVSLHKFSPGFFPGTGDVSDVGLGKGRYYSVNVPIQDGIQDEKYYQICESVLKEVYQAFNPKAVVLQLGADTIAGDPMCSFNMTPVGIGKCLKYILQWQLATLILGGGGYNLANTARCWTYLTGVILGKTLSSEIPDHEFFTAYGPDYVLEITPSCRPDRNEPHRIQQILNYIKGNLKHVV

[3] = biological target: T2, Phosphatidylinositol 4,5-bisphosphate 3-kinase catalytic subunit gamma isoform (Homo sapiens, UniProt P48736)
T2 sequence (P48736 whole entry, canonical isoform): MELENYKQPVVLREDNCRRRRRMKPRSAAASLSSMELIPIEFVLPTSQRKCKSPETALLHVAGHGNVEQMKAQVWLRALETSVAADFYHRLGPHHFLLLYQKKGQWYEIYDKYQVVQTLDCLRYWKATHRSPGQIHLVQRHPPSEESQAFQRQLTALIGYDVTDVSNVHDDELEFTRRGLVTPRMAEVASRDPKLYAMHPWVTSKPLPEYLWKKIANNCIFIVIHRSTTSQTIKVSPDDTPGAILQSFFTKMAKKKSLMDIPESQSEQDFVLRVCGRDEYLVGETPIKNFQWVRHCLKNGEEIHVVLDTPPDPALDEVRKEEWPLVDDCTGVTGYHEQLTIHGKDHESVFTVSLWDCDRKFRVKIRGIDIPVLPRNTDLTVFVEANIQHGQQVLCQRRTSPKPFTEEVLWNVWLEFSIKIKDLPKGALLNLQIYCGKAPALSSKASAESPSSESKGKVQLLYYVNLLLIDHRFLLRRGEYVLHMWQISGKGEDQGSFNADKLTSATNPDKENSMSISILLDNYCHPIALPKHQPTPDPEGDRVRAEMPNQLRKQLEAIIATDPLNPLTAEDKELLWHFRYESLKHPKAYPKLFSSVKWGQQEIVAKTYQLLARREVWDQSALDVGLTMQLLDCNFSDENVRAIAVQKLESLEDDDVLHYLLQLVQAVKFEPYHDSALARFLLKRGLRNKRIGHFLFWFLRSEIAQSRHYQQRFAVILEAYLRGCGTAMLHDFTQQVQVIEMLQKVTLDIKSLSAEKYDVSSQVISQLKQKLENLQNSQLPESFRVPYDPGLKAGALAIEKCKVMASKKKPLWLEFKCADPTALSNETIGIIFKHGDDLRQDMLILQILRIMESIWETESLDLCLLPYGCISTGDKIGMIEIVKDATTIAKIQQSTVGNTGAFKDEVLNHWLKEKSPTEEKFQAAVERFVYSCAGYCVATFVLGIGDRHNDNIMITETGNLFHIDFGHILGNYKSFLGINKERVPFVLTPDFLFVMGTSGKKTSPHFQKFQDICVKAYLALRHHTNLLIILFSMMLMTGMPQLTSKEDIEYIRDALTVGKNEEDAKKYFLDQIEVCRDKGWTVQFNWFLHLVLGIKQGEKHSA

[4] = biological target: T3, Phosphatidylinositol 4,5-bisphosphate 3-kinase catalytic subunit alpha isoform (Homo sapiens, UniProt P42336)
T3 sequence (P42336 whole entry, canonical isoform): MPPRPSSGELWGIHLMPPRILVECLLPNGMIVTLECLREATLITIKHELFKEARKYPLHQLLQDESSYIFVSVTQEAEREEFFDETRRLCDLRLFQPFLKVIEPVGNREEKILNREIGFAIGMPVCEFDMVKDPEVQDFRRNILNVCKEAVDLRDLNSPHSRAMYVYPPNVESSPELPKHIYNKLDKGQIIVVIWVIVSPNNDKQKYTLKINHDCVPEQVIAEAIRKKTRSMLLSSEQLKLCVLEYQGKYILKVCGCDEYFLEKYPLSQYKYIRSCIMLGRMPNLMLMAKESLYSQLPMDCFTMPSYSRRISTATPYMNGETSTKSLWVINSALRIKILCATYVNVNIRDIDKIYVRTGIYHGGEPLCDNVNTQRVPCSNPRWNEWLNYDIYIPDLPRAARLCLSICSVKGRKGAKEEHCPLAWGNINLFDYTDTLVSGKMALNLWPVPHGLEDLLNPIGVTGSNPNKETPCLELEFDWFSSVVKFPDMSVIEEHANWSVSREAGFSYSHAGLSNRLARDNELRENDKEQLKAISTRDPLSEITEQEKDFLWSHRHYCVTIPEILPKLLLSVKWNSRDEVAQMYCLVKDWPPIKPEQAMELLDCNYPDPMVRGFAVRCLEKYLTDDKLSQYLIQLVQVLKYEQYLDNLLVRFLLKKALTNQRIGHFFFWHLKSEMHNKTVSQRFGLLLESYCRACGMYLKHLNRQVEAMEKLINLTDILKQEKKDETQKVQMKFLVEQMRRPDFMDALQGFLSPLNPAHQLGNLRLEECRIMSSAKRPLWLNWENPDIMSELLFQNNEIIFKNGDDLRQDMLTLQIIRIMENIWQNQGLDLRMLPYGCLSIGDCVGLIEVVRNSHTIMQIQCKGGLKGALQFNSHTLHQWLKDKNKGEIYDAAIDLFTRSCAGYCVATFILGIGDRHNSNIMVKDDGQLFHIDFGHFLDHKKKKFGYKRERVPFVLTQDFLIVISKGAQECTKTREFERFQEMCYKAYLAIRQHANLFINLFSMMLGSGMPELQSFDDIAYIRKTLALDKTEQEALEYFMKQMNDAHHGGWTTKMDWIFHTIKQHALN

[5] = biological target: T3, Phosphatidylinositol 4,5-bisphosphate 3-kinase catalytic subunit alpha isoform; assay: Inhibition of PI3Kalpha (unknown origin) using PIP2 as substrate preincubated for 15 mins followed by substrate addition and measured after 1 hr by HTRF assay
[6] = biological target: T2, Phosphatidylinositol 4,5-bisphosphate 3-kinase catalytic subunit gamma isoform; assay: Inhibition of PI3Kgamma (unknown origin) using […] as substrate preincubated for 15 mins followed by substrate addition and measured after 1 hr by HTRF assay
[7] = biological target: T4, Phosphatidylinositol 4,5-bisphosphate 3-kinase catalytic subunit delta isoform (Homo sapiens, UniProt O00329); assay: Inhibition of PI3Kdelta (unknown origin) using PIP2 as substrate preincubated for 15 mins followed by substrate addition and measured after 1 hr by HTRF assay
T4 sequence (O00329 whole entry): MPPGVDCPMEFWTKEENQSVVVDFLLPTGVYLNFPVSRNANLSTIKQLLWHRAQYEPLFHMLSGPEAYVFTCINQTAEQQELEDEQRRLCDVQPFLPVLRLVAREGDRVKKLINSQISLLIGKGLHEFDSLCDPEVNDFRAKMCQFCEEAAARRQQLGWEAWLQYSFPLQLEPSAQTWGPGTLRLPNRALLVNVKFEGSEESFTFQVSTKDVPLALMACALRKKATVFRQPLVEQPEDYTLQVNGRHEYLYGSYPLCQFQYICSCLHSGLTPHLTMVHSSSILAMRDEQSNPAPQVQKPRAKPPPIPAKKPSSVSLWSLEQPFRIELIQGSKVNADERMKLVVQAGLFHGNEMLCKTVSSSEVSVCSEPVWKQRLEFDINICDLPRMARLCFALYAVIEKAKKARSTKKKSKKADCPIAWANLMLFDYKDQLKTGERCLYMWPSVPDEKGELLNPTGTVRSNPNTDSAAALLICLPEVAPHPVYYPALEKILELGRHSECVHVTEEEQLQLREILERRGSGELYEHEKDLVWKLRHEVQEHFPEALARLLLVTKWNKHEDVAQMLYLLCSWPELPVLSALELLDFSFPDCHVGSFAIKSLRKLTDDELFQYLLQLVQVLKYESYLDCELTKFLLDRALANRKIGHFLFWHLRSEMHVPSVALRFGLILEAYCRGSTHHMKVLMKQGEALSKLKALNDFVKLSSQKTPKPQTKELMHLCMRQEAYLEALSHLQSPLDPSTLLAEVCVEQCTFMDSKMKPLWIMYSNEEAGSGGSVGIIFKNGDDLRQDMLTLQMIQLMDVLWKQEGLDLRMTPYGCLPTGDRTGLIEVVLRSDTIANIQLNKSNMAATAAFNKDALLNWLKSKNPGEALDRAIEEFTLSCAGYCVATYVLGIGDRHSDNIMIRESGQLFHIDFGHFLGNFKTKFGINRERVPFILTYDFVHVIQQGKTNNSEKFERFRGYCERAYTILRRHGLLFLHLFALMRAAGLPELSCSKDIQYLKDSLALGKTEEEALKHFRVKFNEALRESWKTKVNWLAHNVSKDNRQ

[8] = biological target: T5, Phosphatidylinositol 4,5-bisphosphate 3-kinase catalytic subunit beta isoform (Homo sapiens, UniProt P42338); assay: Inhibition of PI3Kbeta (unknown origin) using […] as substrate preincubated for 15 mins followed by substrate addition and measured after 1 hr by HTRF assay
T5 sequence (P42338 whole entry, canonical isoform): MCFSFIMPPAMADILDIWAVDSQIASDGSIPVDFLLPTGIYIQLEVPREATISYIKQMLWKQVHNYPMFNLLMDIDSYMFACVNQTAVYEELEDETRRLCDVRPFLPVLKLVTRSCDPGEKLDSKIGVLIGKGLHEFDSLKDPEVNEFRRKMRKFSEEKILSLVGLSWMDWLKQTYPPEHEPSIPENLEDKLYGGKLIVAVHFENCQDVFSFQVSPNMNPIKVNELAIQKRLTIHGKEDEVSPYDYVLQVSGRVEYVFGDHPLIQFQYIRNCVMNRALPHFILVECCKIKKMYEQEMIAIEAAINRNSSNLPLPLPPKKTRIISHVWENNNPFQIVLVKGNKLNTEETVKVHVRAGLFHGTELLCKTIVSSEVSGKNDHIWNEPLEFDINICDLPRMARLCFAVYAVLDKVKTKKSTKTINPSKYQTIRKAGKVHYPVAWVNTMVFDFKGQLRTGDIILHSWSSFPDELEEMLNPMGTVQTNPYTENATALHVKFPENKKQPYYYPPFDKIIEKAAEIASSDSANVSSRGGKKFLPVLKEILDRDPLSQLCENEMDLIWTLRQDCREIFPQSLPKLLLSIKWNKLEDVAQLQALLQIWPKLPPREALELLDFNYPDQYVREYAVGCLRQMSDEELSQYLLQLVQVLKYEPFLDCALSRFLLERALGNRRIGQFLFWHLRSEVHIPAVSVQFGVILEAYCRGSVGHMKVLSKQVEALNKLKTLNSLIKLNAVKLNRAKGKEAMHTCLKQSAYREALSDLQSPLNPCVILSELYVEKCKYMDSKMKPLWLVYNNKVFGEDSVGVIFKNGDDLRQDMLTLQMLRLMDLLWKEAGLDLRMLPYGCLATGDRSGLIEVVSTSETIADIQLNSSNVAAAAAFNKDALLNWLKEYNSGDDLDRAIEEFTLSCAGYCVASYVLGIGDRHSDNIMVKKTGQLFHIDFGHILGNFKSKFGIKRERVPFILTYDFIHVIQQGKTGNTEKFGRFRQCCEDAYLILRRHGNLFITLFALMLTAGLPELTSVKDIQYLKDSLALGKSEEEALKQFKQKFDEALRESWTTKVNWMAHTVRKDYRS

[9] = biological target: Epidermal growth factor receptor (Homo sapiens, UniProt P00533); assay: Inhibition of EGFR (unknown origin)
[10] = biological target: Mitogen-activated protein kinase 1 (Homo sapiens) (UniProt P28482); assay: Inhibition of ERK2 (unknown origin) at 1 uM relative to control by ADP-Glo assay
Chain of Mitogen-activated protein kinase 1 (Homo sapiens) (P28482 whole entry, canonical isoform): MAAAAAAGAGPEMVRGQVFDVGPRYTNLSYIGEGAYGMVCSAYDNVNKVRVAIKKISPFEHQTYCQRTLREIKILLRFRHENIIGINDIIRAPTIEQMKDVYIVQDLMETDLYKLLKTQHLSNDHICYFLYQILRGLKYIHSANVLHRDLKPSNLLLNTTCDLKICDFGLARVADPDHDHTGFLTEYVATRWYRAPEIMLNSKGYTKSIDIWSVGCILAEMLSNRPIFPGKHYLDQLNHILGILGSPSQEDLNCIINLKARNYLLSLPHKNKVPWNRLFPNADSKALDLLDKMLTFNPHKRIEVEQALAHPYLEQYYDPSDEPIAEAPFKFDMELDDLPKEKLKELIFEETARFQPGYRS

[11] = biological target: T3, Phosphatidylinositol 4,5-bisphosphate 3-kinase catalytic subunit alpha isoform; assay: Inhibition of PI3Kalpha (unknown origin) at 1 uM by kinase-glo luminescent assay relative to control
[12] = Cytotoxicity against human SK-ES cells assessed as reduction in cell viability incubated for 48 hrs by CellTiter-Blue reagent based […] assay; format: functional
[13] = Antiproliferative activity against human A2780cis cells assessed as inhibition of cell growth incubated for 72 hrs by cell-titer glo assay; format: functional, cell-based
[14] = biological target: T1, Histone deacetylase 8; assay: Inhibition of HDAC8 (unknown origin) by fluorescence based assay
[15] = tested on: A-375; assay: Antiproliferative activity against human A-375 cells assessed as reduction in cell viability measured after 48 hrs by MTT assay; format: functional, cell-based; conditions: A-375, 48 h
[16] = biological target: T3, Phosphatidylinositol 4,5-bisphosphate 3-kinase catalytic subunit alpha isoform; assay: Inhibition of full length wild type PI3Kalpha (unknown origin)
[17] = biological target: Histone deacetylase 1 (Homo sapiens, UniProt Q13547); assay: Inhibition of HDAC1 (unknown origin) by fluorescence based assay
Chain of Histone deacetylase 1 (Q13547 whole entry, canonical isoform): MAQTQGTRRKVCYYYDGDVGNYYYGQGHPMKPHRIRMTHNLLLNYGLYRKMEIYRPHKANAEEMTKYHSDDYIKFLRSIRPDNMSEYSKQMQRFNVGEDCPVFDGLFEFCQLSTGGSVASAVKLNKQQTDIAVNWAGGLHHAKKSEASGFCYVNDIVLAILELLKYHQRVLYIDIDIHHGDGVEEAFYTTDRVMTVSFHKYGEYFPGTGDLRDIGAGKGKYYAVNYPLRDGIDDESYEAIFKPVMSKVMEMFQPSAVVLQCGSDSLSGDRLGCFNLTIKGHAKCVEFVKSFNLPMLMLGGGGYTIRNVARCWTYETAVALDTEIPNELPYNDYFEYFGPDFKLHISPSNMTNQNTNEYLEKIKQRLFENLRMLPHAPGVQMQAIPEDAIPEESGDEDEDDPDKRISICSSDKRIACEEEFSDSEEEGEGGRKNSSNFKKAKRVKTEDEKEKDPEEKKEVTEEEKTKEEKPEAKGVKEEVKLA

[18] = biological target: T5, Phosphatidylinositol 4,5-bisphosphate 3-kinase catalytic subunit beta isoform; assay: Inhibition of human recombinant PI3Kbeta
[19] = tested on: B16; assay: Antiproliferative activity against mouse B16 cells assessed as reduction in cell viability measured for 48 hrs by MTT assay; format: functional, cell-based; conditions: B16, 48 h

IC50 [1]: 150 nM
Compound: CCn1c(=O)c(-c2cc[nH]n2)cc2c(C)nc(N)nc21 [VOXTALISIB]

IC50 [2]: 153 nM
IC50 [3]: 25 nM
IC50 [4]: 2.98 nM
Compound: COc1c(OCCCCCC(=O)NO)ccc2c1N=C(NC(=O)c1ccccc1)N1CCN=C21

IC50 [5]: 10500 nM
IC50 [6]: 30000 nM
IC50 [7]: 7470 nM
IC50 [8]: 32700 nM
IC50 [9]: 114000 nM
Compound: CCOC(=O)c1nn(-c2ccccc2)c(=O)c2c(N)c(C#N)c(-c3cccs3)cc12

inhibition [10]: 79.5%
inhibition [11]: 4%
Compound: Cn1cc(-c2n[nH]c3nc(NC(=O)NC4CCCC4)ncc23)cn1

Compound: CC(C)OC(=O)N1CCC(Nc2ncnc3ccc(-c4cnc(Cl)c(NS(=O)(=O)c5ccc(F)cc5F)c4)nc23)CC1
IC50 [12]: 99.5 nM
IC50 [13]: 213 nM

IC50 [14]: 66.5 nM
Compound: O=C(NO)c1ccc(/C=N/NC(=O)c2cc(N3CCOCC3)nc(-c3cccc4[nH]ncc34)n2)cc1

Compound: CC(C)c1cc(C(=O)N2CCc3c(sc4nc(-c5cccnc5)nc(N5CCOCC5)c34)C2)c(O)cc1O
IC50 [15]: 2.29 µg/mL (≈ 4.31 µM)

IC50 [16]: 27300 nM
IC50 [17]: 2.5 nM
Compound: CC(C)[C@H]1NC(=O)C[C@H]2/C=C/CCSSC[C@@H](NC1=O)C(=O)N[C@H](Cc1ccccc1)C(=O)NCC(=O)O2

IC50 [18]: 5 nM
Compound: O=C(Nc1ncc2ncc(-c3cn[nH]c3)cc2n1)NC1CCCC1

IC50 [19]: 0.47 µg/mL (≈ 1.03 µM)
Compound: CC(C)c1cc(C(=O)N2CCc3c(sc4ncnc(N5CCOCC5)c34)C2)c(O)cc1O

From ChEMBL document CHEMBL5518190, “Advancements in dual-target inhibitors of PI3K for tumor therapy: Clinical progress, development strategies, prospects” (Eur J Med Chem, 2024)
